Measured values taken from publication PMC10108266, “Pharmacokinetic characteristics of golidocitinib, a highly selective JAK1 inhibitor, in healthy adult participants” (Frontiers in Immunology, 2023).

Assay: Safety (TEAEs), JACKPOT3
Format: in vivo, human
Conditions: n = 6
From the text: The safety monitoring for both JACKPOT2 and JACKPOT3 was similar, included monitoring of adverse events/serious adverse events, clinical safety laboratory tests (clinical chemistry, hematology, coagulation, and urinalysis tests), 12-lead ECG, vital signs (blood pressure, pulse rate, and respiratory rate), and pulmonary function.

SMILES: COc1nn(C)cc1Nc1nccc(-c2c[nH]c3c(NC(=O)[C@@H](C)N4CCN(C)CC4)cccc23)n1 [golidocitinib, (2R)-N-[3-[2-[(3-Methoxy-1-methyl-pyrazol-4-yl)amino]pyrimidin-4-yl]-1H-indol-7-yl]-2-(4-methylpiperazin-1-yl)propenamide]
- ALT Increased (25 mg): 0 n (%)
- AST Increased (25 mg): 0 n (%)
- Abdominal discomfort (25 mg): 1 (16.7%) n (%)
- Blood and Lymphatic System Disorders (25 mg): 1 (16.7%) n (%)
- Blood bilirubin increased (25 mg): 0 n (%)
- Blood cholesterol increased (25 mg): 0 n (%)
- C-reactive protein increased (25 mg): 1 (16.7%) n (%)
- Diarrhea (25 mg): 1 (16.7%) n (%)
- ECG QT prolonged (25 mg): 0 n (%)
- Epistaxis (25 mg): 0 n (%)
- Gastrointestinal disorders (25 mg): 2 (33.3%) n (%)
- Glucose urine present (25 mg): 0 n (%)
- Hemoglobin decreased (25 mg): 0 n (%)
- Hypertriglyceridemia (25 mg): 0 n (%)
- Injury, poisoning and procedural complications (25 mg): 1 (16.7%) n (%)
- Investigations (25 mg): 2 (33.3%) n (%)
- LDH increased (25 mg): 0 n (%)
- LDL increased (25 mg): 0 n (%)
- Leukocytosis (25 mg): 1 (16.7%) n (%)
- Limb injury (25 mg): 1 (16.7%) n (%)
- Metabolism and nutrition disorders (25 mg): 0 n (%)
- Musculoskeletal and connective tissue disorders (25 mg): 0 n (%)
- Musculoskeletal pain (25 mg): 0 n (%)
- Musculoskeletal stiffness (25 mg): 0 n (%)
- Neutrophil count decreased (25 mg): 1 (16.7%) n (%)
- Productive cough (25 mg): 1 (16.7%) n (%)
- Respiratory, Thoracic and Mediastinal Disorders (25 mg): 1 (16.7%) n (%)
- Rhinorrhea (25 mg): 0 n (%)
- Subjects with at least one TEAE (25 mg): 4 (66.7%) n (%)
- Wound (25 mg): 0 n (%)
- ALT Increased (50 mg): 1 (16.7%) n (%)
- AST Increased (50 mg): 2 (33.3%) n (%)
- Abdominal discomfort (50 mg): 0 n (%)
- Blood and Lymphatic System Disorders (50 mg): 0 n (%)
- Blood bilirubin increased (50 mg): 1 (16.7%) n (%)
- Blood cholesterol increased (50 mg): 0 n (%)
- C-reactive protein increased (50 mg): 0 n (%)
- Diarrhea (50 mg): 0 n (%)
- ECG QT prolonged (50 mg): 0 n (%)
- Epistaxis (50 mg): 0 n (%)
- Gastrointestinal disorders (50 mg): 0 n (%)
- Glucose urine present (50 mg): 0 n (%)
- Hemoglobin decreased (50 mg): 0 n (%)
- Hypertriglyceridemia (50 mg): 1 (16.7%) n (%)
- Injury, poisoning and procedural complications (50 mg): 0 n (%)
- Investigations (50 mg): 3 (50.0%) n (%)
- LDH increased (50 mg): 1 (16.7%) n (%)
- LDL increased (50 mg): 1 (16.7%) n (%)
- Leukocytosis (50 mg): 0 n (%)
- Limb injury (50 mg): 0 n (%)
- Metabolism and nutrition disorders (50 mg): 1 (16.7%) n (%)
- Musculoskeletal and connective tissue disorders (50 mg): 0 n (%)
- Musculoskeletal pain (50 mg): 0 n (%)
- Musculoskeletal stiffness (50 mg): 0 n (%)
- Neutrophil count decreased (50 mg): 0 n (%)
- Productive cough (50 mg): 0 n (%)
- Respiratory, Thoracic and Mediastinal Disorders (50 mg): 0 n (%)
- Rhinorrhea (50 mg): 0 n (%)
- Subjects with at least one TEAE (50 mg): 3 (50.0%) n (%)
- Wound (50 mg): 0 n (%)
- ALT Increased (100 mg): 1 (16.7%) n (%)
- AST Increased (100 mg): 0 n (%)
- Abdominal discomfort (100 mg): 0 n (%)
- Blood and Lymphatic System Disorders (100 mg): 0 n (%)
- Blood bilirubin increased (100 mg): 0 n (%)
- Blood cholesterol increased (100 mg): 0 n (%)
- C-reactive protein increased (100 mg): 1 (16.7%) n (%)
- Diarrhea (100 mg): 0 n (%)
- ECG QT prolonged (100 mg): 0 n (%)
- Epistaxis (100 mg): 1 (16.7%) n (%)
- Gastrointestinal disorders (100 mg): 0 n (%)
- Glucose urine present (100 mg): 0 n (%)
- Hemoglobin decreased (100 mg): 0 n (%)
- Hypertriglyceridemia (100 mg): 2 (33.3%) n (%)
- Injury, poisoning and procedural complications (100 mg): 0 n (%)
- Investigations (100 mg): 2 (33.3%) n (%)
- LDH increased (100 mg): 0 n (%)
- LDL increased (100 mg): 0 n (%)
- Leukocytosis (100 mg): 0 n (%)
- Limb injury (100 mg): 0 n (%)
- Metabolism and nutrition disorders (100 mg): 2 (33.3%) n (%)
- Musculoskeletal and connective tissue disorders (100 mg): 1 (16.7%) n (%)
- Musculoskeletal pain (100 mg): 0 n (%)
- Musculoskeletal stiffness (100 mg): 1 (16.7%) n (%)
- Neutrophil count decreased (100 mg): 0 n (%)
- Productive cough (100 mg): 0 n (%)
- Respiratory, Thoracic and Mediastinal Disorders (100 mg): 1 (16.7%) n (%)
- Rhinorrhea (100 mg): 0 n (%)
- Subjects with at least one TEAE (100 mg): 4 (66.7%) n (%)
- Wound (100 mg): 0 n (%)
- ALT Increased (150 mg): 0 n (%)
- AST Increased (150 mg): 0 n (%)
- Abdominal discomfort (150 mg): 0 n (%)
- Blood and Lymphatic System Disorders (150 mg): 0 n (%)
- Blood bilirubin increased (150 mg): 2 (33.3%) n (%)
- Blood cholesterol increased (150 mg): 1 (16.7%) n (%)
- C-reactive protein increased (150 mg): 1 (16.7%) n (%)
- Diarrhea (150 mg): 1 (16.7%) n (%)
- ECG QT prolonged (150 mg): 1 (16.7%) n (%)
- Epistaxis (150 mg): 0 n (%)
- Gastrointestinal disorders (150 mg): 1 (16.7%) n (%)
- Glucose urine present (150 mg): 1 (16.7%) n (%)
- Hemoglobin decreased (150 mg): 1 (16.7%) n (%)
- Hypertriglyceridemia (150 mg): 2 (33.3%) n (%)
- Injury, poisoning and procedural complications (150 mg): 1 (16.7%) n (%)
- Investigations (150 mg): 4 (66.7%) n (%)
- LDH increased (150 mg): 0 n (%)
- LDL increased (150 mg): 1 (16.7%) n (%)
- Leukocytosis (150 mg): 0 n (%)
- Limb injury (150 mg): 0 n (%)
- Metabolism and nutrition disorders (150 mg): 2 (33.3%) n (%)
- Musculoskeletal and connective tissue disorders (150 mg): 1 (16.7%) n (%)
- Musculoskeletal pain (150 mg): 1 (16.7%) n (%)
- Musculoskeletal stiffness (150 mg): 0 n (%)
- Neutrophil count decreased (150 mg): 2 (33.3%) n (%)
- Productive cough (150 mg): 0 n (%)
- Respiratory, Thoracic and Mediastinal Disorders (150 mg): 1 (16.7%) n (%)
- Rhinorrhea (150 mg): 1 (16.7%) n (%)
- Subjects with at least one TEAE (150 mg): 6 (100%) n (%)
- Wound (150 mg): 1 (16.7%) n (%)
